Consider 1 compound from ChEMBL document CHEMBL6109146, “Discovery of New Pyrazolone Carbothioamide Derivatives as Potent Antifungal Agents for the Treatment of Candidiasis and Cryptococcosis” (J Med Chem, 2025).

As a reminder, the clearance is a measure of how efficiently the substance is removed, as volume per time. The low end stands for a low capacity for elimination, the high end for a high capacity for elimination. The inhibition is the drop in the measured response relative to a control, in per cent. One may read the bioavailability as dose-corrected exposure relative to a reference, in per cent. Lower therefore signals poor availability. Usually MFC stands for the lowest tested concentration that kills the fungus rather than only halting it.

A short description of data set [1]: Clearance in male ICR mouse at 2 mg/kg, iv measured after 24 hrs by LC-MS/MS analysis. Format: ADME, organism-based. Particulars: in vivo.
Data set [2] relates to Nakaseomyces glabratus. Description: Upregulation of SOD1 gene expression in Candida glabrata 0161 incubated for 8 hrs by qRT-PCR analysis. The data set is classed as functional. On the technique in general: Quantitative PCR measures a nucleic acid by following its amplification.
In data set [3] the test system is Cryptococcus neoformans. Briefly: Antifungal activity against Cryptococcus neoformans H99 assessed as inhibition of fungal growth at 0.13 microg/ml incubated for 72 hrs by microplate reader analysis relative to control. Format: functional.
Data set [4] has as its system Candida albicans. Briefly: Antifungal activity against Candida albicans 9296 assessed as inhibition of fungal growth incubated for 48 to 72 hrs by microplate reader analysis. The data set is classed as functional, organism-based. To be noted: time 48-72 hrs.
The test system of data set [5] is Cryptococcus neoformans. Briefly: Antifungal activity against Cryptococcus neoformans H99 infected in cryptococcosis female ICR mouse model assessed as intact cellular structures in brain cortex at 20 mg/kg, ip pre-infected with fungi for 3 hrs followed by compound administration and measured after 5 days by H and E staining based analysis. The data set is classed as functional, organism-based. To be noted: time 5.0 day.

For data set [6], the system named is Nakaseomyces glabratus. Description: Inhibition of biofilm formation in Candida glabrata 0161 at 16 to 32 microg/ml incubated for 24 hrs by XTT reagent based assay relative to control. Format: functional. To be noted: dose 16-32 µg/ml, at 16 to 32 µg/mL. Background: Tetrazolium assays rely on reduction of a dye to a coloured formazan, in cell work by metabolically active cells.

For data set [7], the system named is Cryptococcus neoformans. Briefly: Antifungal activity against Cryptococcus neoformans H99 assessed as inhibition of fungal growth by measuring fold increase in MIC in presence of Fe(III) ion. Format: functional.
Data set [8] in a line: Oral bioavailability in male ICR mouse at 20 mg/kg measured after 24 hrs by LC-MS/MS analysis. To be noted: in vivo. The data set is classed as ADME, organism-based.
Data set [9] concerns Nakaseomyces glabratus. Briefly: Antifungal activity against Candida glabrata 0161 assessed as inhibition of fungal growth at <0.0078 microg/ml incubated for 72 hrs by microplate reader analysis. Format: functional, organism-based. To be noted: dose < 0.0078 µg/ml.
Data set [10] deals with Nakaseomyces glabratus. Briefly: Antifungal activity against Candida glabrata 0161 assessed as inhibition of fungal growth in presence of Fe(III) ion. Format: functional, organism-based.
For data set [11], the system named is Cryptococcus neoformans. Description: Antifungal activity against Cryptococcus neoformans H99 infected in cryptococcosis female ICR mouse model assessed as reduction in fungal burden in brain at 20 mg/kg, ip pre-infected with fungi for 3 hrs followed by compound administration and measured after 5 days. Format: functional, organism-based. To be noted: time 5.0 day.

Data set [12] deals with Cryptococcus neoformans. Briefly: Antifungal activity against Cryptococcus neoformans H99 assessed as inhibition of fungal growth at 0.5 to 4 microg/ml incubated for 48 hrs by spot-plating assay. The data set is classed as functional, organism-based. Particulars: dose 0.5-4 µg/ml.
The test system of data set [13] is Nakaseomyces glabratus. Briefly: Induction of oxidative damage Candida glabrata 0161 assessed as increase in MDA level incubated for 24 hrs. The data set is classed as functional, organism-based.
The subject of data set [14] is Nakaseomyces glabratus. Briefly: Antifungal activity against Candida glabrata 0161 infected in candidiasis female ICR mouse model assessed as reduction in fungal burden in kidney at 20 mg/kg, ip pre-infected with fungi for 3 hrs followed by compound administration and measured after 5 days. Format: functional. To be noted: time 5 day.
Data set [15] in a line: Volume of distribution at steady state in male ICR mouse at 2 mg/kg, iv measured after 24 hrs by LC-MS/MS analysis. Format: ADME, organism-based. To be noted: in vivo, read-out: Vdss.
The subject of data set [16] is Nakaseomyces glabratus. Briefly: Antifungal activity against Candida glabrata 0161 assessed as inhibition of fungal growth at 0.13 microg/ml incubated up to 72 hrs by microplate reader analysis relative to control. Format: functional.
The subject of data set [17] is Nakaseomyces glabratus. Description: Fungicidal activity against Candida glabrata 0161 incubated for 48 hrs by time-kill kinetics analysis. Format: functional.
Data set [18] relates to Nakaseomyces glabratus. Description: Induction of ROS accumulation in Candida glabrata 0161 assessed as increase in intracellular ROS level by measuring intense green fluorescence incubated for 24 hrs by DCFH-DA probe based fluorescence microscopic analysis. Format: functional, organism-based.

In brackets after ≈: the same amount, converted by molar mass. Activity calls are given as the source filed them. The calls are words filed in the database; no cut-off is given here.

`Nc1cc(=O)n(C(=S)Nc2ccc(C3CCCCC3)cc2)[nH]1` showed a clearance in data set [1] of 16.2 mL/min/kg. In addition, the outcome in data set [2], in data set [4], in data set [5], in data set [11], in data set [12] and in data set [13] was Active. Further, in [18], the result was Active. Also, the inhibition at 0.13 µg/mL in [3] and in data set [16] was 100% in each case. Further, in data set [6], the “inhibition (INH)” value is approximately 100%. Further, the “fold change (FC)” value in [7] was approximately 1000. In data set [8], the bioavailability came out at 22.6%. For the same compound, the Activity entry in data set [9] was “Not active; Decrease In Inhibitory Potency Observed”; in data set [14] it was 1.2 log10CFU/g. In addition, the outcome in [10] was inactive. In addition, in data set [15], the Vd is 1.47 L/kg. In [17], this compound came in with an MFC of 2 µg/mL (≈ 6.32 µM).
